Here are results for one compound from patent publication US9408826B2, “Isoflavone anti-viral compounds” (Kineta, Inc., priority 2010, dated 2016).

This assay relates to Murine Encephalomyocarditis virus (EMCV). The experiment in a line: EMCV antiviral assay (cell viability by MTS). The format is cell-based. Particulars: Huh7 cells; for Cell viability post-infection: EMCV 250 pfu, MTS. Here is the method: Huh7 cells were grown under normal growth conditions and treated with the indicated amount of drug in media containing 0.5% DMSO. The cells were grown in the presence of drug for 5 hours and then infected with 250 pfu Murine Encephalomyocarditis virus (EMCV) for example obtained from ATCC #VR-129B. Infected cells were grown for an additional 18 hours and then cell viability was measured using an MTS assay. Negative control cells were treated with buffer alone containing 0.5% DMSO. Interferon treatment was used as a positive control for virus inhibition and was added similar to drug treatments at a final concentration of 10 IU/mL for example Interferon-α: Intron A, from Schering-Plough. Cell viability was measured using an MTS assay such as; CellTiter 96® AQueous One Solution Cell Proliferation Assay (MTS), from Promega #G3580.

In the case of `CS(=O)(=O)Oc1ccc2c(=O)c(-c3ccc(Br)cc3)coc2c1` [KIN101, [3-(4-bromophenyl)-4-oxo-chromen-7-yl] methanesulfonate], the “Protection of cell viability following infection with EMCV (in words)” value is “protective of cell viability”. Moreover, under “5 μM drug”, the Cell viability post-infection is about 0.7. This compound also showed a Cell viability post-infection (10 μM drug) of about 1.2. The compound further had a Cell viability post-infection (20 μM drug) of about 1.45.
